Here are results for three compounds from patent US20240150347A1, “INHIBITING CYCLIC AMP-RESPONSIVE ELEMENT-BINDING PROTEIN (CREB) BINDING PROTEIN (CBP)” (FORMATherapeutics,Inc., priority 2020, published 2024).

Each structure is given as a SMILES string. Counter-ions that a name gives are not always drawn.

Data set [1] in a line: Dynamic vapor sorption (hygroscopicity). Type of data set: physicochemical. Conditions: relative humidity of up to 80%, dynamic vapor sorption isotherm plots. The text has this:
Dynamic Vapor Sorption (DVS) data were collected with a SMS DVS Intrinsic from Surface Measurement Systems.

Data set [2] deals with human kinases and disease-relevant mutant variants. The data set can be described thus: KINOMEscan screen for kinase inhibition. Type of data set: binding.
A further data set deals with panel of 10 bromodomains. The data set can be described thus: AlphaScreen panel of 10 BRD. Type of data set: binding. Conditions: 10 BRD of various branches of the bromodomain tree. Background: Bead proximity is the source of the signal in Alpha formats.

`COC(=O)N1c2ccc3c(nc([C@H](O)c4cc(F)ccc4OC)n3[C@@H]3CCC[C@@H](C(=O)O)C3)c2CC[C@@H]1C` [type B p-toluenesulfonic acid addition salt]: the water uptake in data set [1] is recorded as 2.1%.

Consider `COC(=O)N1c2ccc3c(nc([C@H](O)c4cc(F)ccc4OC)n3[C@@H]3CCC[C@@H](C(=O)O)C3)c2CC[C@@H]1C` [Compound 1, (1R,3R)-3-[(7S)-2-[(R)-(5-fluoro-2-methoxyphenyl)(hydroxy)methyl]-6-(methoxycarbonyl)-7-methyl-3H,6H,7H,8H,9H-imidazo[4,5-f]quinolin-3-yl]cyclohexane-1-carboxylic acid], for which the “binding affinity for human kinases and disease-relevant mutant variants” value in data set [2] is “no to low binding affinity”. In addition, the “activity against panel of 10 bromodomains” value with panel of 10 bromodomains is “inactive against 8”.

`COC(=O)N1c2ccc3c(nc([C@H](O)c4cc(F)ccc4OC)n3[C@@H]3CCC[C@@H](C(=O)O)C3)c2CC[C@@H]1C` [HCl type A salt, (1R,3R)-3-((S)-2-((R)-(5-fluoro-2-methoxyphenyl)(hydroxy)methyl)-6-(methoxycarbonyl)-7-methyl-6,7,8,9-tetrahydro-3H-imidazo [4,5-f]quinolin-3-yl)cyclohexane-1-carboxylic acid] registered a water uptake in data set [1] of 6.3%.
